# Target: PAR4 (Homo sapiens (Human), UniProt Q96RI0)
# Test: FLIPR assay in PAR4-expressing HEK293 cells (calcium mobilization)
# Assay type: cell-based
# Details: H-Ala-Phe(4-F)-Pro-Gly-Trp-Leu-Val-Lys-Asn-Gly-NH2-induced calcium mobilization, PAR4 antagonist activity
# Excerpt: The FLIPR assay is an exemplary in vitro assay for measuring the activity of the PAR4 antagonists of the present invention. In this assay, intracellular calcium mobilization is induced in PAR4 expressing cells by a PAR4 agonist and calcium mobilization is monitored.
# HEK293 cells stably expressing PAR4 were generated by a standard method of transfection of human PAR4 (F2R23) cDNA expression vector and selected based on PAR4 protein expression or mRNA expression. […] Therefore, the same cells were also used to determine selectivity against PAR1 and agonist activity for both receptors.
# FLIPR-based calcium mobilization assay in HEK293 cells was used to measure PAR4 antagonism, agonism, and selectivity against PAR1. […] Counter screens for agonist activity and PAR1 antagonist activity were also performed. Briefly, PAR1/PAR4-expressing HEK293 cells were grown in DMEM (Life Technology, Grand Island, N.Y.) containing 10% heat-inactivated FBS, 1% Penicillin-Streptomycin, 10 μg/mL blasticidin, and 100 μg/mL Zeocin at 37° C. with 5% CO2. Cells were plated overnight prior to the experiment in a black 384-well Purecoat Amine clear bottom plate (Becton Dickinson Biosciences, San Jose, Calif.) at 10,000 cells/well in 30 μL growth medium and incubated in a humidified chamber at 37° C. with 5% CO2 overnight. Prior to compound addition, the cell medium was replaced with 40 μL of 1× calcium and magnesium-containing Hank's Balanced Saline Solution (HBSS) (with 20 mM HEPES) and 1:1000 diluted fluorescent calcium indicator (Codex Biosolutions, Gaithersburg, Md.). After a 30 minute incubation period at 37° C. and a further 30 minute incubation and equilibration period at room temperature, 20 μL test compound (diluted in 1×HBSS buffer) was added at various concentrations at 0.17% dimethyl sulfoxide (DMSO) final concentration. Changes in fluorescence intensity were measured using a Functional Drug Screening System (FDSS, Hamamatsu, Japan) to determine agonist activities. The cells were then incubated for 30 minutes at room temperature followed by addition of 20 μL of agonist peptide for antagonist activity measurement. […] Compound potency was derived from 11-point concentration-response curves.
# Chain of PAR4 (Q96RI0 18-385): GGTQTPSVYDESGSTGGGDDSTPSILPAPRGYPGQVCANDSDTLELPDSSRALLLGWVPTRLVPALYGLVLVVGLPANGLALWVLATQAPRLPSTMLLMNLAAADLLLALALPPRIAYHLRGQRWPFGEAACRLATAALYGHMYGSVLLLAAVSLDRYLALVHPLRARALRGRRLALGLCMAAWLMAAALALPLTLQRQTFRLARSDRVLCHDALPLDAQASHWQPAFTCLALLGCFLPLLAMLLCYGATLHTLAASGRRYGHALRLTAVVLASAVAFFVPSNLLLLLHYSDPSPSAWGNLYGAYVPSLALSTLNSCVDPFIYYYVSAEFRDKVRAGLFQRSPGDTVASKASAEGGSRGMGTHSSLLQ
row,Structure (SMILES),IC50 [µM]
1,"COc1cc(OCc2csc(-c3ccc(C(=O)N(C)C)cc3)n2)c2sc(-c3cn4nc(C)sc4n3)nc2c1 [Example 6, 4-(4-(((5-Methoxy-2-(2-methylimidazo[2,1-b][1,3,4]thiadiazol-6-yl)benzo[d]thiazol-7-yl)oxy)methyl)thiazol-2-yl)-N,N-dimethylbenzamide]",3.8
2,"CCc1nn2cc(-c3nc4cc(OC)cc(OCc5csc(-c6ccc(C(=O)N7CCC(CCO)CC7)cc6)n5)c4s3)nc2s1 [Example 36, (4-(4-(((2-(2-Ethylimidazo[2,1-b][1,3,4]thiadiazol-6-yl)-5-methoxybenzo[d]thiazol-7-yl)oxy)methyl)thiazol-2-yl)phenyl)(4-(2-hydroxyethyl)piperidin-1-yl)methanone]",1.3
3,"COc1cc(OCc2csc(-c3ccc(C(=O)O)cc3)n2)c2sc(-c3cn4nc(C(C)(F)F)sc4n3)nc2c1 [Example 14, 4-(4-(((2-(2-(1,1-Difluoroethyl)imidazo[2,1-b][1,3,4]thiadiazol-6-yl)-5-methoxybenzo[d]thiazol-7-yl)oxy)methyl)thiazol-2-yl)benzoic acid]",87
4,COc1cc(OCc2csc(-c3ccc(C(=O)N(CCO)C(C)(C)C)cc3)n2)c2sc(-c3cn4nc(C)sc4n3)nc2c1 [Example 7],30
5,"COc1cc(OCc2csc(-c3ccc(C(=O)N4CCC[C@H](O)C4)cc3)n2)c2sc(-c3cn4nc(C5CC5)sc4n3)nc2c1 [Example 26, (S)-(4-(4-(((2-(2-Cyclopropylimidazo[2,1-b][1,3,4]thiadiazol-6-yl)-5-methoxybenzo[d]thiazol-7-yl)oxy)methyl)thiazol-2-yl)phenyl)(3-hydroxypiperidin-1-yl)methanone]",9.1
6,"COc1cc(OCc2csc(-c3ccc(C(=O)N4CCC[C@H](O)C4)cc3)n2)c2sc(-c3cn4nc(C(C)(F)F)sc4n3)nc2c1 [Example 16, (S)-(4-(4-(((2-(2-(1,1-Difluoroethyl)imidazo[2,1-b][1,3,4]thiadiazol-6-yl)-5-methoxybenzo[d]thiazol-7-yl)oxy)methyl)thiazol-2-yl)phenyl)(3-hydroxypiperidin-1-yl)methanone]",15
7,"COc1cc(OCc2nc(-c3ccc(C(=O)N(C)[C@H]4CCOC4)cc3)sc2C)c2sc(-c3cn4nc(C)sc4n3)nc2c1 [Example 39, (S)-4-(4-(((5-Methoxy-2-(2-methylimidazo[2,1-b][1,3,4]thiadiazol-6-yl)benzo[d]thiazol-7-yl)oxy)methyl)-5-methylthiazol-2-yl)-N-methyl-N-(tetrahydrofuran-3-yl)benzamide]",1.8
8,"COc1cc(OCc2csc(-c3ccc(C(=O)N(C)[C@H]4CCOC4)cc3)n2)c2sc(-c3cn4nc(C)ccc4n3)nc2c1 [Example 47, (S)-4-(4-(((5-Methoxy-2-(6-methylimidazo[1,2-b]pyridazin-2-yl)benzo[d]thiazol-7-yl)oxy)methyl)thiazol-2-yl)-N-methyl-N-(tetrahydrofuran-3-yl)benzamide]",6.4
9,"COc1cc(OCc2csc(-c3ccc(C(=O)N(C)C)cc3)n2)c2sc(-c3cn4nc(C(C)(F)F)sc4n3)nc2c1 [Example 18, 4-(4-(((2-(2-(1,1-difluoroethyl)imidazo[2,1-b][1,3,4]thiadiazol-6-yl)-5-methoxybenzo[d]thiazol-7-yl)oxy)methyl)thiazol-2-yl)-N,N-dimethylbenzamide]",5.1
10,"CCc1nn2cc(-c3nc4cc(OC)cc(OCc5csc(-c6ccc(C(=O)OC(C)(C)C)cc6)n5)c4s3)nc2s1 [Example 31, tert-Butyl 4-(4-(((2-(2-ethylimidazo[2,1-b][1,3,4]thiadiazol-6-yl)-5-methoxybenzo[d]thiazol-7-yl)oxy)methyl)thiazol-2-yl)benzoate]",2
11,"COc1cc(OCc2csc(-c3ccc(C(=O)N(C)[C@H]4CCOC4)cc3)n2)c2sc(-c3cn4nc(C5CC5)sc4n3)nc2c1 [Example 25, (S)-4-(4-(((2-(2-Cyclopropylimidazo[2,1-b][1,3,4]thiadiazol-6-yl)-5-methoxybenzo[d]thiazol-7-yl)oxy)methyl)thiazol-2-yl)-N-methyl-N-(tetrahydrofuran-3-yl)benzamide]",2.6

# From patent US10238638B2, “Benzothiazole and benzothiophene compounds” (Bristol-Myers Squibb Company, priority 2015, dated 2019)
